The test system of data set [1] is Trypanosoma brucei brucei 427 cells. Briefly: T. brucei culture and assay (PrestoBlue). The data set is classed as cell-based. The conditions noted are these: for IC50: mean of 2(+) independent trials, read-out: IC50 T. brucei.
The subject of data set [2] is rat skeletal muscle cell line, L6. Briefly: cells. The data set is classed as cell-based.
Data set [3] has as its system Leishmania amazonensis promastigotes expressing beta-lactamase. Nature of the data set: microbe, parasite or virus in culture. It is filed as cell-based. The conditions noted are these: for IC50: Leishmania amazonensis, read-out: IC50 L. amaz.
In data set [4] the test system is Trypanosoma cruzi Tulahuen cells expressing beta-galactosidase. Nature of the data set: T. cruzi intracellular assay (beta-galactosidase, L6 host cells). The conditions noted are these: for IC50: Trypanosoma cruzi, TULAHUEN
Method: Trypanosoma cruzi Tulahuen cells expressing beta-galactosidase (Buckner et al., Antimicrob. Agents Chemother. 40 (1996) 2592-2597) were cultured using the L6 cell line as a host cell. Adherent L6 cultures were infected with freshly burst T. cruzi trypomastigotes. Approximately 4-6 days later freshly burst trypomastigotes were collected and used to maintain cultures For assays, trypomastigotes were centrifuged to a loose pellet and incubated for 3 hours to allow the trypomastigote forms to swim out of the pellet. Cells were adjusted for addition to intracellular or extracellular assays. […] For intracellular assays, cells were added to adherent L6 cells using an infection ratio of 1:1 and immediately treated with compounds. At 96 hours incubations, a solution containing chlorophenol-red-B-D-beta-galactopyranosidase (Sigma) and a lysis agent were added. After an additional 2 hour incubation, a spectrophotometer was used to quantify the resulting color change (or lack thereof) which was used to calculate inhibition.
The percentage of cell inhibition was calculated using the formula: Percent Inhibition=1−((Treated Sample value−Medium only value)/(Untreated value−Medium only value))×100. Results are expressed as the mean of two or more independent trials.
Where [5] appears, read: Rattus norvegicus, Table 1, read-out: IC50 Toxicity (L6).
[6] abbreviates: Table 2, L6 IC50 / L. amazonensis IC50.
Where [7] appears, read: read-out: IC50 T. cruzi, Table 1, intracellular assay, mean of 2(+) trials (^c one trial).
[8] abbreviates: read-out: IC50 T. cruzi, Table 2, intracellular assay, mean of 2(+) independent trials.

This is an account of results in patent US20200399238A1, “THERAPEUTIC AURONES” (MIDDLE TENNESSEE STATE UNIVERSITY, priority 2016, published 2020).

Where two headings read alike, the source gives them in different places.

One may read the melting point as the temperature of the solid-liquid transition. Broadly, the IC50 is the concentration that inhibits the measured activity by half. `CCCCc1ccc(/C=C2\Oc3ccccc3C2=O)cc1` [Aurone 3009, (Z)-2-(4-butylbenzylidene)benzofuran-3(2H)-one] had a melting point of 80 to 81 °C. The IC50 in data set [1] (Table 2) is more than 50 µM. Further, in data set [1] (Trypanosoma brucei, Table 1), the IC50 is more than 50 µM. The IC50 in data set [2] (setting [5]) came to 35 µM. In addition, the IC50 in data set [2] (Rattus norvegicus, Table 3A, weighted means of two or more independent trials, read-out: IC50 L6) worked out at 35 µM. The half-maximal inhibitory concentration (IC50) in data set [3] is 2.36 µM. Also, in data set [3] (Table 1), the “Selectivity L6/La” value was 14.84. Also, in data set [3] (setting [6]), the “Selectivity L6/La” value is 14.84. In addition, in data set [4] (Table 3A, estimated from highest L6 dose tested where no L6 IC50), the “Selectivity L6/TC-I” value is 4.38. Also, in data set [4] (setting [7]), the IC50 is more than 50 µM. In data set [4] (setting [8]), the IC50 was more than 50 µM. The IC50 in data set [4] (read-out: IC50 TC-I, Table 3A, weighted means of two or more independent trials) is 7.99 µM.
With `O=C1/C(=C/c2ccc(Br)cn2)Oc2ccccc21` [Aurone 3011, (Z)-2-((5-bromopyridin-2-yl)methylene)benzofuran-3(2H)-one], the melting point lay in the range of 192 to 193 °C. Besides, the concentration for half-maximal inhibition (IC50) in data set [1] (Table 2) is more than 50 µM. Also, in data set [1] (Trypanosoma brucei, Table 1), the IC50 is more than 50 µM. In addition, the IC50 in data set [2] (setting [5]) is more than 100 µM. The IC50 in data set [2] (Rattus norvegicus, Table 3B, weighted means of two or more independent trials, read-out: IC50 L6) was more than 100 µM. Besides, in data set [2] (Table 2, L6 mammalian cells, read-out: IC50 Toxicity (L6)), the IC50 is more than 100 µM. Besides, the IC50 in data set [3] came to 2.61 µM. Further, the “Selectivity L6/La” value in data set [3] (Table 1) is listed as more than 38.31. Further, the “Selectivity L6/La” value in data set [3] (setting [6]) is given as more than 38.31. Also, the “Selectivity L6/Tc” value in data set [4] (Table 1, intracellular T. cruzi IC50) is recorded as more than 3.04. Besides, in data set [4] (Table 2, L6 IC50 / T. cruzi IC50 (intracellular assay)), the “Selectivity L6/Tc” value is more than 3.04. Also, the “Selectivity L6/Tc-I” value in data set [4] (Table 3B, estimated from highest L6 dose tested where no L6 IC50) is listed as more than 3.04. In data set [4] (setting [7]), the IC50 was 32.9 µM. Moreover, the half-inhibitory concentration (IC50) in data set [4] (setting [8]) was determined as 32.9 µM. The half-inhibitory concentration (IC50) in data set [4] (read-out: IC50 TC-I, Table 3B, weighted means of two or more independent trials) is 32.9 µM.
Compound `COc1cccc(/C=C2\Oc3ccc(C)cc3C2=O)c1O` [Aurone 4003, (Z)-2-(2-hydroxy-3-methoxybenzylidene)-5-methylbenzofuran-3(2H)-one] had a melting point of 134 to 137 °C. In data set [1] (Table 1), the “Selectivity L6/Tb” value is more than 3.61. For the same compound, in data set [1] (Trypanosoma brucei, Table 1), the IC50 is 27.7 µM. The IC50 in data set [2] (setting [5]) is more than 100 µM. Moreover, in data set [3], the concentration for half-maximal inhibition (IC50) is 13.4 µM. Further, the “Selectivity L6/La” value in data set [3] (Table 1) was more than 7.45. Besides, in data set [4] (setting [7]), the IC50 is more than 50 µM.
As to `COc1ccc2c(c1)O/C(=C\c1cccs1)C2=O` [Aurone 5001, (Z)-6-methoxy-2-(thiophen-2-ylmethylene)benzofuran-3(2H)-one], the melting point lay within 99 to 103 °C. The IC50 in data set [1] (Trypanosoma brucei, Table 1) is more than 50 µM. In addition, the concentration for half-maximal inhibition (IC50) in data set [2] (setting [5]) was more than 100 µM. In addition, the IC50 in data set [3] was 21.1 µM. Further, the “Selectivity L6/La” value in data set [3] (Table 1) is on record as more than 4.73. The IC50 in data set [4] (setting [7]) is more than 50 µM.
The compound `COc1ccc2c(c1)O/C(=C\c1ccc(C)cc1)C2=O` [Aurone 5002, (Z)-6-methoxy-2-(4-methylbenzylidene)benzofuran-3(2H)-one] returned a melting point of 115 to 122 °C. For the same compound, the IC50 in data set [1] (Trypanosoma brucei, Table 1) was found to be 40.7 µM. Further, the IC50 in data set [2] (setting [5]) is 183 µM. Besides, the IC50 in data set [3] was 10.5 µM. Besides, the half-maximal inhibitory concentration (IC50) in data set [4] (setting [7]) was more than 50 µM. In addition, the IC50 in data set [4] (setting [8]) is more than 50 µM.
On to `COc1ccc2c(c1)O/C(=C\c1ccc(Br)cc1)C2=O` [Aurone 5005, (Z)-2-(4-bromobenzylidene)-6-methoxybenzofuran-3(2H)-one], for which the melting point was determined as 153 °C. The IC50 in data set [1] (Trypanosoma brucei, Table 1) was found to be 47.2 µM. The half-inhibitory concentration (IC50) in data set [2] (setting [5]) is 181 µM. Also, in data set [3], the half-maximal inhibitory concentration (IC50) came to 14.3 µM. Moreover, the half-inhibitory concentration (IC50) in data set [4] (setting [7]) was more than 50 µM. In addition, the IC50 in data set [4] (setting [8]) was more than 50 µM.
`COc1ccc2c(c1)O/C(=C\c1ccc(C#N)cc1)C2=O` [Aurone 5006, (Z)-4-((6-methoxy-3-oxobenzofuran-2(3H)-ylidene)methyl)benzonitrile]: the melting point was in the range of 180 to 181 °C. The IC50 in data set [1] (Trypanosoma brucei, Table 1) was found to be 30.3 µM. Moreover, in data set [2] (setting [5]), the IC50 came to 213 µM. Besides, the IC50 in data set [3] was 4.79 µM. Also, in data set [4] (setting [7]), the IC50 is more than 50 µM. In addition, in data set [4] (setting [8]), the IC50 was more than 50 µM.
Compound `Cc1ccc(/C=C2\Oc3ccc(Br)cc3C2=O)cc1` [Aurone 6000, (Z)-5-bromo-2-(4-methylbenzylidene)benzofuran-3(2H)-one] yielded a melting point of 115 to 120 °C. For the same compound, the half-maximal inhibitory concentration (IC50) in data set [1] (Trypanosoma brucei, Table 1) was more than 50 µM. Further, the IC50 in data set [2] (setting [5]) is more than 100 µM. The 50% inhibitory concentration (IC50) in data set [3] was 8.43 µM. In data set [4] (setting [7]), the IC50 was more than 50 µM. In data set [4] (setting [8]), the concentration for half-maximal inhibition (IC50) is more than 50 µM.
